This is an account of results in patent US7879887B2, “α-amino acid derivatives and medicaments containing the same as an active ingredient” (Nissan Chemical Industries, Ltd., priority 2006, dated 2011).

One test concerns the target T1, recombinant human βARK1 (Homo sapiens, UniProt P25098).
T1 construct: made in house; host or cells: Sf-9 insect cells (baculovirus, pBacPAK8)
T1 sequence (P25098 1-689): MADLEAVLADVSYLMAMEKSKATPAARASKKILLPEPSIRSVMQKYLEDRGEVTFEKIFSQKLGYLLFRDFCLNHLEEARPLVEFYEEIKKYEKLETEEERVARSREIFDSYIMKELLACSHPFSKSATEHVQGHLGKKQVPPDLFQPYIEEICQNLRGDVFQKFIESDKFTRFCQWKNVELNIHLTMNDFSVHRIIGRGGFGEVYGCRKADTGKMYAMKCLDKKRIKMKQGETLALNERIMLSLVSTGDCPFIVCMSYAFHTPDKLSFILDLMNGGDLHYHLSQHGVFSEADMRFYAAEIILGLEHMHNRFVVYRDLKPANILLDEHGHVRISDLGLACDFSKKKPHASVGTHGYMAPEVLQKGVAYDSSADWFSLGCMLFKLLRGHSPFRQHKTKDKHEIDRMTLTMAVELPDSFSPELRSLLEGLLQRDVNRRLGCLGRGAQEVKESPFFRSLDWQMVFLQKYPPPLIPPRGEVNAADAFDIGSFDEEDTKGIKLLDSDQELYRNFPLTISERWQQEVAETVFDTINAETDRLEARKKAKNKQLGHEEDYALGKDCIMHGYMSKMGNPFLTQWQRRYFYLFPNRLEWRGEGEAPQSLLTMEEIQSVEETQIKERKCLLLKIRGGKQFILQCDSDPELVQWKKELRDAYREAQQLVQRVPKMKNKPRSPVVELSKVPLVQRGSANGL
In words: Inhibitory activity against βARK1 (33P phosphorylation of synthetic peptide). The conditions noted are these: recombinant human βARK1, 60 minutes at room temperature. In kind it is biochemical. In a few lines:
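Recombinant human βARK1 from baculovirus-infected Sf-9 cells, purified by SP-Sepharose and heparin chromatography. Biotinylated synthetic peptide phosphorylated with [γ-33P]ATP; substrate solution held 1 mmol/L peptide and 80 μmol/L ATP, enzyme solution 19 to 38 nmol/L βARK1, both in Tris-HCl pH 7.5, 7.5 mmol/L MgCl2; final DMSO 4 vol %.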

A further test concerns the target CDK2/Cyclin E complex (Homo sapiens, UniProt P24941). Description: In vitro kinase assay, CDK2/Cyclin E complex. In kind it is biochemical. The note with it: recombinant protein (Upstate); read-out: CDK2/cyclinE IC50. On the procedure:
Inhibitory activity against Aurora A, CDK1/Cyclin B complex, CDK2/Cyclin E complex and CDK3/Cyclin E complex were measured by in vitro kinase assay using recombinant proteins.

With `CC(C)(Nc1ccc(Cl)c(C(=O)NC2CC2)c1)C(=O)Nc1nc2c(C(F)(F)F)cc3[nH]ncc3c2s1` [compound 75], the IC50 at recombinant human βARK1 was 8.8 nM; on CDK2/Cyclin E complex it was 131 nM.
As to `CCNC(=O)c1cc(NC(C)(C)C(=O)Nc2nc3c(C(F)(F)F)cc4[nH]ncc4c3s2)ccc1Cl` [compound 60], the IC50 on recombinant human βARK1 was 4.5 nM; on CDK2/Cyclin E complex it was 37 nM.
Taken in the same sequence, the figures for `CC(=O)Nc1cc(NC(C)(C)C(=O)Nc2nc3ccc4[nH]ncc4c3s2)ccc1Cl` [compound 128] were 2.8 nM and 28 nM.
The matching figures for `CNC(=O)c1cc(NC2(C(=O)Nc3nc4ccc5[nH]ncc5c4s3)CC2)ccc1Cl` [compound 126]: 7.5 nM and 39 nM.
Turning to `O=C(Nc1nc2ccc3[nH]ncc3c2s1)C1(Nc2ccc(Cl)cc2)CC1` [compound 117], the IC50 at recombinant human βARK1 worked out at 3.9 nM; on CDK2/Cyclin E complex, 19 nM.
Taken in the same sequence, the figures for `CC(C)(Nc1ccc(Cl)c(C(=O)NCC(N)=O)c1)C(=O)Nc1nc2c(C(F)(F)F)cc3[nH]ncc3c2s1` [compound 85] were 9.9 nM and 2.4 nM.
With `CC(C)(Nc1ccc(Cl)c(O)c1)C(=O)Nc1nc2c(C(F)(F)F)cc3[nH]ncc3c2s1` [compound 95], the IC50 came to 8.7 nM at recombinant human βARK1 and 23 nM on CDK2/Cyclin E complex.
For `O=C(CNc1ccc(Cl)c(O)c1)Nc1nc2ccc3[nH]ncc3c2s1` [compound 6], the IC50 on recombinant human βARK1 amounted to 4 nM; on CDK2/Cyclin E complex, 26 nM.
Taken in the same sequence, the figures for `CCOC(=O)c1cc(NC2(C(=O)Nc3nc4ccc5[nH]ncc5c4s3)CC2)ccc1Cl` [compound 118] were 8.7 nM and 116 nM.
Take `CCNC(=O)c1cc(NC(C)(C)C(=O)Nc2nc3c(C(F)(F)F)cc4[nH]ncc4c3s2)ccc1F` [compound 58]: the IC50 at recombinant human βARK1 worked out at 6.4 nM; at CDK2/Cyclin E complex it was 107 nM.
Taken in the same sequence, the figures for `CC(C)(Nc1ccc(Cl)c(C(=O)NCCCC(=O)O)c1)C(=O)Nc1nc2c(C(F)(F)F)cc3[nH]ncc3c2s1` [compound 144] were 7.7 nM and 249 nM.
On to `O=C(Nc1nc2ccc3[nH]ncc3c2s1)C(CO)Nc1ccc(Cl)cc1` (stereo not shown) [compound 132], for which the IC50 at recombinant human βARK1 was found to be 7.7 nM; at CDK2/Cyclin E complex, 20 nM.
The matching figures for `CC(C)(Nc1ccc(Cl)c(C(N)=O)c1)C(=O)Nc1nc2c(C(F)(F)F)cc3[nH]ncc3c2s1` [compound 135]: 3.2 nM and 52 nM.
The matching figures for `CCC(=O)Nc1cc(NC2(C(=O)Nc3nc4ccc5[nH]ncc5c4s3)CC2)ccc1F` [compound 121]: 4.6 nM and 110 nM.
The matching figures for `CC(C)(Nc1ccc(Cl)cc1)C(=O)Nc1nc2ccc3[nH]ncc3c2s1` [compound 35]: 8.8 nM and 45 nM.
In the case of `CC(=O)Nc1cc(NC(C)(C)C(=O)Nc2nc3c(C(F)(F)F)cc4[nH]ncc4c3s2)ccc1Cl` [compound 53], the IC50 on recombinant human βARK1 was found to be 2 nM; on CDK2/Cyclin E complex, 51 nM.
Taken in the same sequence, the figures for `CC(=O)Nc1cc(NC2(C(=O)Nc3nc4ccc5[nH]ncc5c4s3)CC2)ccc1F` [compound 120] were 3.7 nM and 64 nM.
With `CC(=O)Nc1cc(NCC(=O)Nc2nc3ccc4[nH]ncc4c3s2)ccc1Cl` [compound 16], the values for the IC50 on recombinant human βARK1 and at CDK2/Cyclin E complex were 8.3 nM and 37 nM, respectively.
Taken in the same sequence, the figures for `CNC(=O)c1cc(NC(C)(C)C(=O)Nc2nc3c(C(F)(F)F)cc4[nH]ncc4c3s2)ccc1Cl` [compound 55] were 6.3 nM and 44 nM.
Taken in the same sequence, the figures for `CC(C)(Nc1cccc(S(N)(=O)=O)c1)C(=O)Nc1nc2c(C(F)(F)F)cc3[nH]ncc3c2s1` [compound 82] were 9.3 nM and 15 nM.
The matching figures for `CC(C)(Nc1cccc(O)c1)C(=O)Nc1nc2ccc3[nH]ncc3c2s1` [compound 33]: 7.8 nM and 33 nM.
For the compound `CCC(=O)Nc1cc(NC(C)(C)C(=O)Nc2nc3ccc4[nH]ncc4c3s2)ccc1Cl` [compound 129], the IC50 at recombinant human βARK1 was 3.9 nM; on CDK2/Cyclin E complex, 86 nM.
The matching figures for `CC(=O)Nc1cc(NC(C)(C)C(=O)Nc2nc3c(C(F)(F)F)cc4[nH]ncc4c3s2)ccc1F` [compound 81]: 8.3 nM and 93 nM.
